Entries after “also recorded” stand apart in the source; their conditions may differ. Like-named read-outs stand apart in the source and are kept apart here. Marks after values point to notes of the source that are not given here.
What was measured:
[1] = molecular target: T1, μ-opioid receptors (MOP receptors) (Mus musculus, UniProt P42866); type: cell-based
T1 construct: expressed in transfected cells; host or cells: HEK293
Method: Briefly, HEK-MOP cells were pre-incubated with 2% (2-hydroxypropyl)-β-cyclodextrin (βCD) for 1 h at 37° C. to deplete cholesterol from caveloae in the cell membrane. Cells were washed with DMEM and then utilized in the forskolin-stimulated cAMP assay as described above. […] Cells were washed with DMEM and then utilized in the forskolin-stimulated cAMP assay as described above.

[2] = molecular target: T1, μ-opioid receptors (MOP receptors); type: cell-based; remark: listed apart in the source

T1 sequence (P42866 whole entry): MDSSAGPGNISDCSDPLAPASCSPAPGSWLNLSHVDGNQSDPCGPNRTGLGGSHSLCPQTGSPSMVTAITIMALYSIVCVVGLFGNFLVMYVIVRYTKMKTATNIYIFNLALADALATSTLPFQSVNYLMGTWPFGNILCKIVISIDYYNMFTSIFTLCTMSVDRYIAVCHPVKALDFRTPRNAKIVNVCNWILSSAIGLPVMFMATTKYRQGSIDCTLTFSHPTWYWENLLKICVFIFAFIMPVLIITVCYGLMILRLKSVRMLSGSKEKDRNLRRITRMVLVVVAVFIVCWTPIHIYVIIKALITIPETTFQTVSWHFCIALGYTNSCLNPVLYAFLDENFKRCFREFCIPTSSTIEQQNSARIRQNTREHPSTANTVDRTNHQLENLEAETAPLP

Row | SMILES | % of forskolin stimulated cyclic AMP response ([1]; Conc 10^−3 M) [%] | % of forskolin stimulated cyclic AMP response ([1]; Conc 10^−4 M) | % of forskolin stimulated cyclic AMP response ([1]; Conc 10^−5 M) | % of forskolin stimulated cyclic AMP response ([1]; Conc 10^−6 M) | % of forskolin stimulated cyclic AMP response ([1]; Conc 10^−7 M) [%] | % of forskolin stimulated cyclic AMP response ([1]; Conc 10^−8 M) | % of forskolin stimulated cyclic AMP response ([1]; Conc 10^−9 M) | % of forskolin stimulated cyclic AMP response ([1]; Conc 10^−11 M) [%] | % of forskolin stimulated cyclic AMP response ([1]; Conc 10^−13 M) | % of forskolin stimulated cyclic AMP response ([1]; Conc 10^−14 M) | % of forskolin stimulated cyclic AMP response ([1]; Conc 10^−15 M) | % of forskolin stimulated cyclic AMP response ([1]; Conc 10^−16 M) | % of forskolin stimulated cyclic AMP response ([1]; Conc 10^−17 M) | % of forskolin stimulated cyclic AMP response ([1]; Conc 10^−18 M) | % of forskolin stimulated cyclic AMP response ([2]; Conc 10^−10 M) | % of forskolin stimulated cyclic AMP response ([2]; Conc 10^−12 M) | effect on forskolin-stimulated cAMP responses ([2]; MOP-transfected HEK293 (FIG. 11))
1 | [O-][n+]1onc(-c2ccccc2)c1-c1ccccc1 [Compound 5] | 69.6 | 99.8% | 120.4% | 142.4% | 112.7 | 73.6% | 57.7% | 76.3 | 102.3% | 105.6% | 117.0% | 91.2% | 75.8% | 68.7% | 79.2% | 119.1% | 
2 | COc1ccc(-c2no[n+]([O-])c2C)cc1 [Compound 24] | 71.2 | 106.7^a % | 131.1^a % | 56.7% | 94.3 | 53.8^a % | 132.4% | 79.4 | 82.3% | 75.1% | 97.0^a % | 88.0% | 70.0% | 70.0% | 60.2% | 90.1% | 
3 | [O-][n+]1onc(-c2ccccc2)c1CO [Compound 31] | 3.8 | 182.4^a % | 96.9^a % | 60.0^a % | 108.4 | 36.2^a % | 76.8^a % | 61.0 | 85.7% | 77.5^a % | 42.2^a % | 54.8% | 48.5^a % | 94.5% | 42.8^a % | 81.4% | 
4 | CC(=O)c1c(-c2ccccc2)no[n+]1[O-] [Compound 27] | 22.4 | 73.8^a % | 128.2% | 60.0% | 83.2 | 86.4% | 56.4% | 84.4 | 88.3^a % | 78.2% | 115.4% | 162.4% | 108.6^a % | 56.5% | 46.0% | 66.7^a % | 
5 | [O-][n+]1onc(-c2ccc(F)cc2)c1-c1ccc(F)cc1 [Compound 21] | 7.1 | 42.1% | 63.5% | 53.0% | 47.3 | 57.5% | 46.5% | 29.9 | 61.5% | 59.7% | 64.0% | 67.7% | 49.1% | 38.7% | 38.4% | 42.9% | 
6 | Cc1c(-c2ccc(F)cc2)no[n+]1[O-] [Compound 23] | 46.6 | 121.2% | 66.2% | 90.0% | 89.0 | 98.2% | 64.0% | 75.7 | 87.6% | 79.2% | 80.4% | 77.1% | 73.6% | 80.2% | 56.5% | 74.7% | 
7 | O=C(O)c1c(-c2ccc(F)cc2)no[n+]1[O-] [Compound 18] | 7.1 | 79.0% | 97.7% | 101.0% | 91.9 | 81.7% | 142.3^a % | 77.5 | 85.4% | 85.3% | 90.4% | 89.6% | 94.1% | 54.7^a % | 83.6% | 82.2% | 
8 | Cc1c(-c2ccccc2)no[n+]1[O-] [Compound 13] | 40.2 | 67.1% | 109.4^a % | 84.5^a % | 78.8 | 80.3% | 94.9% | 66.3 | 89.6% | 99.4^a % | 101.5% | 88.3^a % | 105.3% | 61.2% | 106.9% | 108.8% | 
9 | Nc1nc2c(nc(Br)n2[C@@H]2O[C@@H]3COP(=O)(O)O[C@H]3[C@H]2O)c(=O)[nH]1 [Compound 8-Br-cGMP, 8-Br-cGMP, reference compound] |  |  |  |  |  |  |  |  |  |  |  |  |  |  |  |  | did not inhibit forskolin-stimulated cAMP responses; also recorded: lack of effects

Source: patent publication US8822509B2, “Pain-relieving compositions and uses therefor” (priority 2006, dated 2014)
